Reference: ChEMBL document CHEMBL5726342, “NMDA receptor modulators and uses related thereto” (2017)

Assay: Inhibition Assay: Two-electrode voltage-clamp recordings were made from Xenopus laevis oocytes expressing recombinant rat GluN1/GluN2A, GluN1/GluN2B, GluN1/GluN2C, GluN1/GluN2D, GluA1, or GluK2 receptors following injection of 5-10 ng of cRNA synthesized according to manufacturers' protocols (Ambin, mMessage, mMachine). cDNAs used were rat GluN1-1a (GenBank accession numbers U11418 and U08261; hereafter GluN1), GluN2A (D13211), GluN2B (U11419), GluN2C (M91563), GluN2D (L31611), GluA1 (X17184), GluK2 (Z11548). The current under voltage-clamp was recorded during perfusion with recording solution containing (in mM) 90 NaCl, 1.0 KCl, 0.5 BaCl2, 0.005 EDTA, and 10 HEPES at pH 7.4 (23° C.). Glass micropipettes had resistances of 0.3-1.0 MS2 and were filled with 3.0 M KCl. The membrane potential was clamped at −40 mV during the experiment. Recordings were digitized at 10 Hz and analyzed off line. 20 mM stock solutions of test compounds in 100% DMSO were made and diluted to obtain the final concentration; final DMSO content was 0.05-0.5% (vol/vol). Oocytes expressing GluK2 homomeric receptors were first treated with 10 μM concanavalin A (10 minutes). NMDA receptor responses were obtained by challenging oocytes with 100 μM glutamate plus 30 μM glycine; GluA1 and GluK2 receptors responses were recorded during application of 100 μM glutamate. […]
Type: cell-based

## CCc1ccc(C2C(C(=O)c3ccncc3)=C(O)C(=O)N2CCc2c[nH]c3cc(C)ccc23)cc1 (configuration not stated)
  IC50: 9 µM

## CCc1ccc(C2C(C(=O)c3cccnc3)=C(O)C(=O)N2CCc2c[nH]c3cc(C)ccc23)cc1 (configuration not stated)
  IC50: 7 µM
